Assay [1] concerns HCT116 cells (colorectal adenocarcinoma). Briefly: Sulforhodamine B (SRB) antiproliferative assay, HCT116. Format: cell-based. Conditions: Homo sapiens, HCT-116, HCT116, 48 h, mean ± SEM of four to six independent experiments. As for the experimental part:
(§1) The antiproliferative properties of andrographolide and all prepared derivatives (2–26) were evaluated against a panel of different cancer cell lines, including human pancreatic ductal adenocarcinoma (PANC-1), colorectal adenocarcinoma (HCT116), melanoma (A375), breast adenocarcinoma (MCF-7) and a non-tumorigenic colon (CCD-18Co) cell line using the sulforhodamine B assay.
(§2) Human breast adenocarcinoma MCF-7, pancreatic ductal adenocarcinoma PANC-1, melanoma A375, and non-tumorigenic colon CCD-18Co cell lines were purchased from ATCC (Rockville, MD, USA). Human colorectal adenocarcinoma HCT116 cells were kindly provided by B. Vogelstein (The Johns Hopkins Kimmel Cancer Center, Baltimore, MD, USA). Tumor cells were routinely cultured in RPMI-1640 medium with UltraGlutamine from Biowest (VWR, Carnaxide, Portugal) supplemented with 10% fetal bovine serum (FBS) from Biowest (VWR, Carnaxide, Portugal), except for the PANC-1 cells, which were grown in DMEM (4.5 g/L glucose) with stable L-glutamine and sodium pyruvate and supplemented with 10% FBS. The non-tumorigenic CCD-18Co cells were cultured in EMEM (Lonza, VWR, Carnaxide, Portugal), supplemented with 10% FBS. All cells were incubated at 37 °C in a humidified atmosphere of 5% CO2. Routine mycoplasma testing was performed using the MycoAlert™ PLUS mycoplasma detection kit (Lonza).
(§3) For the evaluation of the compound effect on cell proliferation, human cell lines were seeded in 96-well plates at a density of 5.0 × 10^3 (HCT116, MCF-7, PANC-1, A375, and CCD-18Co) cells per well, for 24 h. Cells were then treated with serial dilutions of the compound (ranging from 0.63 to 30 µM), for an additional 48 h incubation period. The growth inhibitory effects were assessed by SRB assay, as described in [58], and the half-maximal inhibitory concentration (IC50 values) were determined for each cell line using the GraphPad Prism software version 7.0 (La Jolla, CA, USA). Culture medium containing a maximum of 0.05% dimethyl sulfoxide (DMSO) was used as negative control.
On the technique in general: The SRB assay estimates cell density from bound dye.

In assay [2] the test system is MCF-7 cells (breast adenocarcinoma). In words: Sulforhodamine B (SRB) antiproliferative assay, MCF-7. Format: cell-based. Conditions: Homo sapiens, MCF7, MCF-7, 48 h, mean ± SEM of four to six independent experiments. As for the experimental part:
as §1, §2, §3

Assay [3] concerns PANC-1 cells (pancreatic ductal adenocarcinoma). In words: Sulforhodamine B (SRB) antiproliferative assay, PANC-1. Format: cell-based, human. Conditions: Homo sapiens; PANC-1, 48 h, SRB; mean ± SEM of four to six independent experiments. As for the experimental part: as §1, §2, §3
The test system of the next assay is A375 cells (melanoma). Briefly: Sulforhodamine B (SRB) antiproliferative assay, A375. Format: cell-based. Conditions: Homo sapiens, A-375, A375, 48 h, mean ± SEM of four to six independent experiments. Here is the method: as §1, §2, §3
In assay [4] the test system is CCD-18Co cells (non-tumorigenic colon). In words: Sulforhodamine B (SRB) antiproliferative assay, CCD-18Co. Format: cell-based. Conditions: Homo sapiens, CCD-18Co non-tumorigenic, 48 h, mean ± SEM of four to six independent experiments. As for the experimental part: as §1, §2, §3

SMILES strings stand for the structures.

Take `C=C1CC[C@@H]2[C@](C)(CO)[C@H](O)CC[C@@]2(C)[C@@H]1C/C=C1/C(=O)OC[C@H]1O` [Compound 1, andrographolide]: the IC50 in assay [1] was 5.1 ± 1.5 µM; in assay [2] it was 13.5 ± 0.5 µM; in assay [3], 3.1 ± 0.1 µM; in the assay on A375 cells (melanoma) it was 4 ± 0.1 µM; in assay [4] it was 6.2 ± 1.1 µM.

With `C=C1CC[C@@H]2[C@](C)(COC(C)=O)[C@H](OC(C)=O)CC[C@@]2(C)[C@@H]1C/C=C1/C(=O)OC[C@H]1OC(C)=O` [Compound 2, 3,14,19-Triacetyl Andrographolide], the IC50 came out at 1.4 ± 0.1 µM in assay [1]; 4.9 ± 0.1 µM in assay [2]; 1.9 ± 0.2 µM in assay [3]; 1.2 ± 0.2 µM in the assay with A375 cells (melanoma); 5.6 ± 1.3 µM in assay [4].

For `C=C1CC[C@@H]2[C@](C)(COC(C)=O)[C@H](OC(C)=O)CC[C@@]2(C)[C@@H]1C[C@@H](N=[N+]=[N-])C1=CCOC1=O` [Compound 3, (12R)-azido-3,19-diacetoxy-14-deoxy-andrographolide], the IC50 is 7.9 ± 2.1 µM in assay [1]; 6.6 ± 0.1 µM in assay [2]; 1.9 ± 0.1 µM in assay [3]; 1.3 ± 0.1 µM in the assay on A375 cells (melanoma); 3.8 ± 0.7 µM in assay [4].

In the case of `C=C1CC[C@@H]2[C@](C)(COC(C)=O)[C@H](OC(C)=O)CC[C@@]2(C)[C@@H]1C[C@H](N=[N+]=[N-])C1=CCOC1=O` [Compound 4, (12S)-azido-3,19-diacetoxy-14-deoxy-andrographolide], the IC50 in assay [1] amounted to 1.5 ± 0.2 µM; in assay [2] it was 6.9 ± 0.8 µM; in assay [3], 3 ± 0.2 µM; with A375 cells (melanoma) it was 1.2 ± 0.2 µM; in assay [4] it was 2.2 ± 0.8 µM.

`C=C1CC[C@@H]2[C@](C)(COC(C)=O)[C@H](OC(C)=O)CC[C@@]2(C)[C@@H]1C[C@H](C1=CCOC1=O)n1cc(C(C)(C)O)nn1` [Compound 5, (12R)-4-(2-methyl-2-ol)-1,2,3-triazole-3,19-diacetoxy-14-deoxy-andrographolide]: the IC50 in assay [1] was 8.4 ± 1.1 µM; in assay [2], 25 ± 3 µM; in assay [3], 8.5 ± 1 µM; in the assay on A375 cells (melanoma) it was 7.7 ± 1.3 µM; in assay [4] it was 7.1 ± 2.6 µM.

In the case of `C=C1CC[C@@H]2[C@](C)(COC(C)=O)[C@H](OC(C)=O)CC[C@@]2(C)[C@@H]1C[C@H](C1=CCOC1=O)n1cc(C(=O)OCC)nn1` [Compound 6, (12R)-4-propriolate-1,2,3-triazole-3,19-diacetoxy-14-deoxy-andrographolide], the IC50 in assay [1] turned out to be 1.2 ± 0.1 µM; in assay [2] it was 3.8 ± 0.2 µM; in assay [3], 3.4 ± 0.9 µM; in the assay on A375 cells (melanoma) it was 1.3 ± 0.3 µM; in assay [4], 4.4 ± 0.2 µM.

With `C=C1CC[C@@H]2[C@](C)(COC(C)=O)[C@H](OC(C)=O)CC[C@@]2(C)[C@@H]1C[C@H](C1=CCOC1=O)n1cc(CNC(=O)OC(C)(C)C)nn1` [Compound 7, (12R)-4-(tert-butylmethyl carbamate)-1,2,3-triazole-3,19-diacetoxy-14-deoxy-andrographolide], the IC50 came out at 1.6 ± 0.4 µM in assay [1]; 18 ± 0.1 µM in assay [2]; 4.1 ± 0.3 µM in assay [3]; 3.6 ± 0.9 µM in the assay with A375 cells (melanoma); 12.9 ± 2.2 µM in assay [4].

As to `C=C1CC[C@@H]2[C@](C)(COC(C)=O)[C@H](OC(C)=O)CC[C@@]2(C)[C@@H]1C[C@H](C1=CCOC1=O)n1cc(Cc2ccccc2)nn1` [Compound 8, (12R)-4-benzyl-1,2,3-triazole-3,19-diacetoxy-14-deoxy-andrographolide], the IC50 in assay [1] stood at 2.1 ± 0.6 µM; in assay [2], 15.5 ± 0.5 µM; in assay [3] it was 3.1 ± 0.4 µM; in the assay with A375 cells (melanoma), 23 ± 2 µM; in assay [4] it was 8.7 ± 1.9 µM.

For the compound `C=C1CC[C@@H]2[C@](C)(COC(C)=O)[C@H](OC(C)=O)CC[C@@]2(C)[C@@H]1C[C@@H](C1=CCOC1=O)n1cc(Cc2ccccc2)nn1` [Compound 9, (12S)-4-benzyl-1,2,3-triazole-3,19-diacetoxy-14-deoxy andrographolide], the IC50 in assay [1] was determined as 1.9 ± 0.6 µM; in assay [2] it was 8.1 ± 0.1 µM; in assay [3], 2 ± 0.1 µM; with A375 cells (melanoma) it was 2.1 ± 0.3 µM; in assay [4] it was 3.8 ± 0.9 µM.

Consider `C=C1CC[C@@H]2[C@](C)(COC(C)=O)[C@H](OC(C)=O)CC[C@@]2(C)[C@@H]1C[C@H](C1=CCOC1=O)n1cc(-c2ccccc2)nn1` [Compound 10, (12R)-4-phenyl-1,2,3-triazole-3,19-diacetoxy-14-deoxy-andrographolide], for which the IC50 in assay [1] came out at 2.2 ± 0.1 µM; in assay [2], 7.8 ± 0.8 µM; in assay [3], 3.8 ± 0.7 µM; in the assay with A375 cells (melanoma), 7.7 ± 1 µM; in assay [4] it was 7.2 ± 0.6 µM.

As for `C=C1CC[C@@H]2[C@](C)(COC(C)=O)[C@H](OC(C)=O)CC[C@@]2(C)[C@@H]1C[C@@H](C1=CCOC1=O)n1cc(-c2ccccc2)nn1` [Compound 11, (12S)-4-phenyl-1,2,3-triazole-3,19-diacetoxy-14-deoxy-andrographolide], the IC50 came to 1.9 ± 0.3 µM in assay [1]; 4.2 ± 0.8 µM in assay [2]; 3.4 ± 0.6 µM in assay [3]; 8.2 ± 0.1 µM in the assay on A375 cells (melanoma); 3.3 ± 0.4 µM in assay [4].

Regarding `C=C1CC[C@@H]2[C@](C)(COC(C)=O)[C@H](OC(C)=O)CC[C@@]2(C)[C@@H]1C[C@H](C1=CCOC1=O)n1cc(-c2ccc(N)cc2)nn1` [Compound 13, (12R)-4-aniline-1,2,3-triazole-3,19-diacetoxy-14-deoxy-andrographolide], the IC50 worked out at 4.8 ± 1.3 µM in assay [1]; 26 ± 3 µM in assay [2]; 6.5 ± 0.4 µM in assay [3]; 6.8 ± 0.9 µM in the assay with A375 cells (melanoma); 30 ± 2 µM in assay [4].

In the case of `C=C1CC[C@@H]2[C@](C)(COC(C)=O)[C@H](OC(C)=O)CC[C@@]2(C)[C@@H]1C[C@H](C1=CCOC1=O)n1cc(-c2ccc(C#N)cc2)nn1` [Compound 14, (12R)-4-benzonitrile-1,2,3-triazole-3,19-diacetoxy-14-deoxy-andrographolide], the IC50 worked out at 2 ± 0.6 µM in assay [1]; 7.9 ± 0.6 µM in assay [2]; 2.5 ± 0.3 µM in assay [3]; 1.7 ± 0.2 µM in the assay on A375 cells (melanoma); 3.7 ± 0.9 µM in assay [4].

Regarding `C=C1CC[C@@H]2[C@](C)(COC(C)=O)[C@H](OC(C)=O)CC[C@@]2(C)[C@@H]1C[C@@H](C1=CCOC1=O)n1cc(-c2ccc(C#N)cc2)nn1` [Compound 15, (12S)-4-benzonitrile-1,2,3-triazole-3,19-diacetoxy-14-deoxy-andrographolide], the IC50 in assay [1] came out at 1.3 ± 0.1 µM; in assay [2], 5.6 ± 0.2 µM; in assay [3], 3.3 ± 0.9 µM; in the assay on A375 cells (melanoma) it was 1.2 ± 0.2 µM; in assay [4] it was 6.2 ± 1.2 µM.

For the compound `C=C1CC[C@@H]2[C@](C)(COC(C)=O)[C@H](OC(C)=O)CC[C@@]2(C)[C@@H]1C[C@H](C1=CCOC1=O)n1cc(-c2ccc(OC)cc2)nn1` [Compound 16, (12R)-4-(4-methoxyphenyl)-1,2,3-triazole-3,19-diacetoxy-14-deoxy-andrographolide], the IC50 in assay [1] is 2.3 ± 0.9 µM; in assay [2], 9.3 ± 0.1 µM; in assay [3] it was 2.3 ± 0.2 µM; with A375 cells (melanoma), 1.5 ± 0.2 µM; in assay [4] it was 6.8 ± 1 µM.

In the case of `C=C1CC[C@@H]2[C@](C)(COC(C)=O)[C@H](OC(C)=O)CC[C@@]2(C)[C@@H]1C[C@@H](C1=CCOC1=O)n1cc(-c2ccc(OC)cc2)nn1` [Compound 17, (12S)-4-(4-methoxyphenyl)-1,2,3-triazole-3,19-diacetoxy-14-deoxy-andrographolide], the IC50 in assay [1] was found to be 1.7 ± 0.5 µM; in assay [2], 5.6 ± 0.2 µM; in assay [3] it was 2.1 ± 0.1 µM; in the assay with A375 cells (melanoma), 0.9 ± 0.1 µM; in assay [4], 4.4 ± 0.9 µM.

For the compound `C=C1CC[C@@H]2[C@](C)(COC(C)=O)[C@H](OC(C)=O)CC[C@@]2(C)[C@@H]1C[C@H](C1=CCOC1=O)n1cc(-c2ccc(OC(F)(F)F)cc2)nn1` [Compound 18], the IC50 in assay [1] turned out to be 3.7 ± 0.5 µM; in assay [2], 9.5 ± 0.5 µM; in assay [3], 3.5 ± 1.6 µM; in the assay on A375 cells (melanoma) it was 6.6 ± 0.8 µM; in assay [4], 5.1 ± 0.1 µM.

Take `C=C1CC[C@@H]2[C@](C)(COC(C)=O)[C@H](OC(C)=O)CC[C@@]2(C)[C@@H]1C[C@@H](C1=CCOC1=O)n1cc(-c2ccc(OC(F)(F)F)cc2)nn1` [Compound 19]: the IC50 in assay [1] stood at 4.1 ± 0.2 µM; in assay [2], 7.9 ± 1.5 µM; in assay [3] it was 3.1 ± 0.8 µM; in the assay with A375 cells (melanoma) it was 7.1 ± 0.1 µM; in assay [4], 6.6 ± 0.9 µM.

Broadly, the IC50 is the midpoint of a concentration-inhibition curve. Higher therefore signals a need for much substance.

The values above are taken from article PMC12114840, “Exploring the Anticancer Properties of 1,2,3-Triazole-Substituted Andrographolide Derivatives” (Pharmaceuticals, 2025).
